Assay results from patent US6921776B1, “Compound” (Sterix Limited, priority 1996, dated 2005).
Like-named read-outs stand apart in the source and are kept apart here.

Key:
[1] = molecular target: T1, oestrone sulphatase (E1-STS) (Homo sapiens, UniProt P08842); conditions: for E1-STS inhibitory potency compared with COUMATE: placental microsomes
T1 sequence (P08842 22-583): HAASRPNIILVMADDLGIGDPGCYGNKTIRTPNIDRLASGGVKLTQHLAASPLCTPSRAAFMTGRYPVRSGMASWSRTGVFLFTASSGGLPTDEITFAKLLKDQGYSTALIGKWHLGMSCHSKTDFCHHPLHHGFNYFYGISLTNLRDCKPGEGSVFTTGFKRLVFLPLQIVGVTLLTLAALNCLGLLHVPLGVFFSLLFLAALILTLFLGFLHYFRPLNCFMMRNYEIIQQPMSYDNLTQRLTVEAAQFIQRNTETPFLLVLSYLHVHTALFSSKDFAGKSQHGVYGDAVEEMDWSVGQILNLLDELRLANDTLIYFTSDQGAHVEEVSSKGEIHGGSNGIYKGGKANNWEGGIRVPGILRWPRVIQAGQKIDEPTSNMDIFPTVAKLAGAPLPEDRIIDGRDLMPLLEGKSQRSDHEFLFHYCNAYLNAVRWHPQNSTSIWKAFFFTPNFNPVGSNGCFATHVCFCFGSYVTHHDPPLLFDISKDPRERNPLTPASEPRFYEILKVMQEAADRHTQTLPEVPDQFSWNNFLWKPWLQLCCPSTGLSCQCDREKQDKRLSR

[2] = molecular target: T1, oestrone sulphatase (E1-STS); conditions: cited from earlier work; for Mode of E1-STS inhibition: literature
[3] = in vivo; cited from earlier work
[4] = Chemical and thermal stability of coumarin sulphate; type: physicochemical; conditions: sodium hydroxide in methanol
[5] = molecular target: T2, E1-STS (Homo sapiens, UniProt P08842); test: Substrate test: hydrolysis of coumarin sulphates by placental microsomes in absence or presence of EMATE; conditions: 100 μg, 1 h, placental microsomes ± EMATE 10 μM
T2 sequence (P08842 22-583): T1 sequence (P08842 22-583)

[6] = molecular target: T2, E1-STS; conditions: previous work, Ref. 28; cited from earlier work
[7] = molecular target: T3, dehydroepiandrosterone sulphatase (DHA-STS) (Homo sapiens, UniProt P08842); conditions: read-out: IC50 for inhibition of DHEA sulphatase in placental microsomes; from Ref. 25; cited from earlier work
T3 sequence (P08842 22-583): T1 sequence (P08842 22-583)

[8] = molecular target: T1, oestrone sulphatase (E1-STS); parameters: endogenous in cells; host or cells: MCF-7 breast cancer cells; conditions: 0.1 μM; cited from earlier work
[9] = molecular target: T4, rat liver DHA-STS (Rattus norvegicus, UniProt P15589); conditions: administered orally or subcutaneously; cited from earlier work
T4 construct: host or cells: rat liver, after dosing in vivo
T4 sequence (P15589 20-577): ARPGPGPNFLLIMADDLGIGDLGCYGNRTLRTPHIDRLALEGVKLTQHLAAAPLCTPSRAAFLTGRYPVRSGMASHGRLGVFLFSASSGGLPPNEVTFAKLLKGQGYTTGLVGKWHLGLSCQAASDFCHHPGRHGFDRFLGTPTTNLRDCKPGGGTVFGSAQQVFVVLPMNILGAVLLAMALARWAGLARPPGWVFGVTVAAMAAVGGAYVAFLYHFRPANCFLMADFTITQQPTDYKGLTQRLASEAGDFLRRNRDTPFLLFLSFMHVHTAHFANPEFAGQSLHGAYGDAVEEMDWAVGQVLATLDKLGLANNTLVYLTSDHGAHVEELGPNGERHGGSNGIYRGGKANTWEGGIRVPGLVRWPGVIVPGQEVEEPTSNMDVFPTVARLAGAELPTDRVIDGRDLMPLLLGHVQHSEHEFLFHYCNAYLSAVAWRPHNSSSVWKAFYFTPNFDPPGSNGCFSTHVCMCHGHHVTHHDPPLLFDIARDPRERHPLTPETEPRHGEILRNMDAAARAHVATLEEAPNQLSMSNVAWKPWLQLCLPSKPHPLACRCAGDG

[10] = molecular target: T5, E1-STS (Rattus norvegicus, UniProt P15589); test: E1-STS activity in uteri of treated ovariectomised rats; type: in vivo; conditions: 1 mg/kg s.c. for 5 days
T5 construct: The E1-STS activity in the uteri obtained from these animals; from tissue; host or cells: uteri of ovariectomised rats dosed in vivo
T5 sequence (P15589 20-577): T4 sequence (P15589 20-577)

[11] = tested on: ovariectomized rats; conditions: oral, from Ref. 31; cited from earlier work
[12] = molecular target: T6, oestrone sulphatase (Rattus norvegicus, UniProt P15589); test: Sulphatase activity in white blood cells of rats after oral dosing; type: in vivo
T6 construct: from tissue; host or cells: white blood cells of orally dosed rats
T6 sequence (P15589 20-577): T4 sequence (P15589 20-577)

[13] = molecular target: T1, oestrone sulphatase (E1-STS); test: Time- and concentration-dependent inactivation of oestrone sulphatase in placental microsomes (preincubation); type: biochemical
[14] = molecular target: T1, oestrone sulphatase (E1-STS); conditions: cited from earlier work
[15] = tested on: ovariectomised rats; test: Oestrogenic activity: uterine weight in ovariectomised rats; type: in vivo, rat; conditions: 1 mg/kg s.c. for 5 days
[16] = tested on: ovariectomized rats; test: Oestrogenicity after oral administration: E1S-stimulated uterine growth in ovariectomized rats; type: in vivo, rat
Excerpt: The oestrogenic activity of 17 was also studied.

[17] = molecular target: T1, oestrone sulphatase (E1-STS); test: Inhibition of oestrone sulphatase (E1-STS) in intact MCF-7 breast cancer cells; conditions: 10 μM

Compound: CCCc1cc(=O)oc2cc(OS(N)(=O)=O)ccc12 [compound 6, 4-(n-Propyl)coumarin-7-O-sulphamate]
- % Inhibition ± S.D. of E1-STS activity in placental microsomes ([1]; 0.1 μM (Table 1)): 42 ± 2%
- % Inhibition ± S.D. of E1-STS activity in placental microsomes ([1]; 1 μM (Table 1)): 94 ± 1%
- % Inhibition ± S.D. of E1-STS activity in placental microsomes ([1]; 10 μM (Table 1)): 96 ± 1%
- E1-STS inhibitory potency compared with COUMATE [1]: more potent E1-STS inhibitors than COUMATE

Compound: oestrone-3-S-sulphamate
- Mode of E1-STS inhibition [2]: weaker non-time-dependent inactivators

Compound: C[C@]12CC[C@@H]3c4ccc(OS(=O)(=O)O)cc4CC[C@H]3[C@@H]1CCC2=O [E1S, oestrone sulphate]
- Half-life in blood [3]: 10 to 12 h

Compound: CCc1c(C)c2ccc(OS(N)(=O)=O)cc2oc1=O [compound 8, 3-Ethyl-4-methylcoumarin-7-O-sulphamate]
- % Inhibition ± S.D. of E1-STS activity in placental microsomes ([1]; 0.1 μM (Table 1)): 57 ± 1%
- % Inhibition ± S.D. of E1-STS activity in placental microsomes ([1]; 1 μM (Table 1)): 96 ± 1%
- % Inhibition ± S.D. of E1-STS activity in placental microsomes ([1]; 10 μM (Table 1)): >99%
- E1-STS inhibitory potency compared with COUMATE [1]: more potent E1-STS inhibitors than COUMATE

Compound: Cc1cc(=O)oc2cc(OS(=O)(=O)[O-])ccc12.[Na+] [compound 12, 7-(Sulphoxy)-4-Methylcoumarin, sodium salt]
- Stability in basic and acidic conditions [4]: stable in bases such as sodium hydroxide in methanol but not in acidic conditions
- melting point: 172 to 175 °C (dec.)
- Substrate for E1-STS [5]: the coumarin sulphate is indeed a substrate for the sulphatase
- Substrate for E1-STS [6]: substrate for E1-STS

Compound: NS(=O)(=O)Oc1ccc2c(c1)OC(=O)CC1=C2CCCC1 [compound 22, 6-Oxo-6,7,8,9,10,11-hexahydrodibenz[b,d]oxepin-3-O-sulphamate]
- % Inhibition ± S.D. of E1-STS activity in placental microsomes ([1]; 0.01 μM (Table 2)): <10%
- % Inhibition ± S.D. of E1-STS activity in placental microsomes ([1]; 0.1 μM (Table 2)): 31 ± 5%
- % Inhibition ± S.D. of E1-STS activity in placental microsomes ([1]; 1 μM (Table 2)): 94 ± 2%

Compound: C[C@]12CC[C@@H]3c4ccc(OS(N)(=O)=O)cc4CC[C@H]3[C@@H]1CCC2=O [EMATE, oestrone-3-sulphamate]
- Mode of E1-STS inhibition [2]: time- and concentration-dependent manner
- KI (inactivation) ([2]; read-out: Apparent Ki for E1-STS inactivation, from Ref. 25): 670 nM
- IC50 [7]: 110 nM
- % inhibition of E1-STS activity in intact MCF-7 cells [8]: more than 99%
- IC50 [1]: 25 nM
- Inhibition of rat liver DHA-STS activity [9]: 99%

Compound: Cc1cc(=O)oc2cc(OS(N)(=O)=O)ccc12 [compound 14]
- Inhibition of E1-STS activity in uteri compared with untreated animals [10]: 89.4%
- Oestrogenicity [11]: devoid of oestrogenicity
- Oral activity in rats [12]: potent oral activity
- % Inhibition of sulphatase activity in white blood cells, MD ([12]; daily for seven days 0.1 mg/kg): 65%
- % Inhibition of sulphatase activity in white blood cells, MD ([12]; daily for seven days 1.0 mg/kg): 85%
- % Inhibition of sulphatase activity in white blood cells, MD ([12]; daily for seven days 10.0 mg/kg): 89%
- Mode of E1-STS inhibition [13]: time- and concentration-dependent manner in a biphasic fashion
- % Inhibition ± S.D. of E1-STS activity in placental microsomes ([14]; 0.1 μM (Table 1, reproduced from Ref. 28)): <10%
- % Inhibition ± S.D. of E1-STS activity in placental microsomes ([14]; 1 μM (Table 1, reproduced from Ref. 28)): 63 ± 1%
- Effect on uterine weight (oestrogenic activity) [15]: did not result in any significant increase in the uterine weight

Compound: CCc1cc(=O)oc2cc(OS(N)(=O)=O)ccc12 [compound 4, 4-Ethylcoumarin-7-O-sulphamate]
- % Inhibition ± S.D. of E1-STS activity in placental microsomes ([1]; 0.1 μM (Table 1)): 35 ± 1%
- % Inhibition ± S.D. of E1-STS activity in placental microsomes ([1]; 1 μM (Table 1)): 88 ± 1%
- % Inhibition ± S.D. of E1-STS activity in placental microsomes ([1]; 10 μM (Table 1)): >99%
- E1-STS inhibitory potency compared with COUMATE [1]: more potent E1-STS inhibitors than COUMATE

Compound: oestrone-3-N-sulphamate
- Mode of E1-STS inhibition [2]: weaker non-time-dependent inactivators

Compound: CCCc1c(C)c2ccc(OS(N)(=O)=O)cc2oc1=O [compound 11, 4Methyl-3-(n-propyl)coumarin-7-O-sulphamate]
- % Inhibition ± S.D. of E1-STS activity in placental microsomes ([1]; 0.1 μM (Table 1)): 83 ± 1%
- % Inhibition ± S.D. of E1-STS activity in placental microsomes ([1]; 1 μM (Table 1)): 97 ± 1%
- % Inhibition ± S.D. of E1-STS activity in placental microsomes ([1]; 10 μM (Table 1)): >99%
- E1-STS inhibitory potency compared with COUMATE [1]: more potent E1-STS inhibitors than COUMATE

Compound: O=c1oc2cc(OS(=O)(=O)O)ccc2c2c1CCCCC2 [compound 18, 6-Oxo-3-sulfooxy-8,9,10,11-tetrahydro-7H-cyclohepta-[c][1]-benzopyran]
- Substrate for E1-STS [5]: is a substrate for this enzyme

Compound: NS(=O)(=O)Oc1ccc2c3c(c(=O)oc2c1)CCCCC3 [compound 17, 6-Oxo-8,9,10,11-tetrahydro-7H-cyclohepta-[c][1]benzopyran-3-O-sulphamate]
- Oestrogenicity [16]: devoid of oestrogenicity
- Oestrogenicity ([16]; listed as 667COUMATE): not being oestrogenic

Compound: Coumarin-7-O-sulphamate [compound 13]
- % Inhibition ± S.D. of E1-STS activity in placental microsomes ([14]; 10 μM (Table 1, reproduced from Ref. 28)): 78 ± 1%
- % Inhibition of E1-STS activity in placental microsomes ([14]; 50 μM (footnote a, Ref. 28)): > 90%

Compound: NS(=O)(=O)Oc1ccc2c3c(c(=O)oc2c1)CCCCCC3 [compound 20, 6-Oxo-7,8,9,10,11,12-hexahydro-cycloocta-[c][1]benzopyran-3-O-sulphamate]
- % Inhibition ± S.D. of E1-STS activity in placental microsomes ([1]; 0.01 μM (Table 2)): 17 ± 2%
- % Inhibition ± S.D. of E1-STS activity in placental microsomes ([1]; 0.1 μM (Table 2)): 89 ± 1%
- Inhibition of E1-STS in placental microsomes ([1]; 1 μM): almost complete inhibition
- % Inhibition ± S.D. of E1-STS activity in placental microsomes ([1]; 1 μM (Table 2)): >99%

Compound: NS(=O)(=O)Oc1ccc2c(C(F)(F)F)cc(=O)oc2c1 [compound 16]
- % inhibition of E1-STS in intact MCF-7 cells [17]: 71.5%
